These results are taken from patent US8288371B2, “Ortho pyrrolidine, benzyl-substituted heterocycle CCR1 antagonists for autoimmune diseases and inflammation” (Pharmacopeia, LLC, priority 2007, dated 2012).

pIC50: −log10 of the molar value.

The pIC50 is the IC50 on a negative log10 scale, so that one unit is a factor of ten.

The target of this test is T1, human CCR1 (Homo sapiens, UniProt P32246).
T1 sequence (P32246 1-355): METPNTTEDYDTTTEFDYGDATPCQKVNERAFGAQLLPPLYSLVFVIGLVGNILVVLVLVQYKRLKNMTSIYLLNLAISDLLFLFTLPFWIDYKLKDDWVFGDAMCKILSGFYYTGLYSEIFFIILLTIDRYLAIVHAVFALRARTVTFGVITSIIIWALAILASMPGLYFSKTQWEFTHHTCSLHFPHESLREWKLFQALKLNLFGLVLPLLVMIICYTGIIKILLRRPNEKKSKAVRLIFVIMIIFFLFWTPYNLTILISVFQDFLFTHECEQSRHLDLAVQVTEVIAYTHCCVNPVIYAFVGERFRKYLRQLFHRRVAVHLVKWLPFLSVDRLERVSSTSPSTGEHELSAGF
Nature of the test: CCR1 binding protocol (SPA, [125I]-MIP-1α displacement). Conditions: cell membrane expressing human CCR1, 0.1 nM [125I]-MIP-1α, 4 hours at ambient temperature; read-out: Relative potency (IC50). Summed up:
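Displacement of 0.1 nM [125I]-MIP-1α (final) from membranes expressing human CCR1 was measured by scintillation proximity after 4 h at ambient temperature. Conditions: pH 7.4 Tris buffer with 0.1% BSA and MnCl, and 0.5 μg membrane per well. Compounds were tested as a 10-step ½-log series from a 10 mM DMSO stock to derive IC50.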
`Cc1nnc([C@H]2CCCN2C(=O)NCc2ccc(Cl)cc2Cl)n1Cc1ccc(Cl)cc1` [Compound 202]: the pIC50 is above 7.30.

For `Cc1nnc([C@H]2CCCN2C(=O)N[C@H]2CC(C)(C)Oc3cc(C(F)(F)F)ccc32)n1Cc1ccc(Cl)cc1` [Compound 268], the pIC50 is above 7.30.

As to `Cc1nnc([C@H]2CCCN2C(=O)N[C@@H](C)c2ccc3ccccc3c2)n1Cc1ccc(Cl)cc1` [Compound 131], the negative-log IC50 (pIC50) was above 7.30.

As for `O=C(Nc1ccc(Cl)c(C(F)(F)F)c1)N1CCC[C@@H]1c1nccn1Cc1ccc(Cl)cc1` [Compound 41], the pIC50 is 6.30 to 7.30.

As to `Cc1nnc([C@H]2C[C@H](O)CN2C(=O)NCc2ccc(C(F)(F)F)cc2)n1Cc1ccc(Cl)cc1` [Compound 471], the pIC50 is above 7.30.

Take `Cc1nc(C(F)(F)F)ccc1NC(=O)N1CCC[C@@H]1c1nnc(C)n1Cc1cccc(Br)c1` [Compound 553]: the pIC50 was 5.30 to 6.30.

As to `Cc1nc(C(F)(F)F)ccc1CC(=O)N1CCC[C@@H]1c1nncn1Cc1ccc(Cl)cc1` [Compound 618], the pIC50 was above 7.30.

In the case of `Cc1nnc([C@H]2CCCN2C(=O)N[C@H]2CCCc3ccccc32)n1Cc1ccc(Cl)cc1` [Compound 172], the pIC50 is 6.30 to 7.30.

`Cc1nnc([C@H]2CCCN2C(=O)Nc2ccc3c(c2)N(C)C(=O)CO3)n1Cc1ccc(Cl)nc1` [Compound 381]: the pIC50 was 5.30 to 6.30.

`O=C(Nc1ccc(Cl)cc1F)N1CCC[C@@H]1c1nnc(CO)n1Cc1ccc(Cl)cc1` [Compound 310]: the pIC50 is 6.30 to 7.30.

With `Cc1noc(C)c1NC(=O)N1CC(F)C[C@@H]1c1nnc(C)n1Cc1ccc(Cl)cc1` (some centres unmarked) [Compound 575], the pIC50 is above 7.30.

Take `Cc1nnc([C@H]2CCCN2C(=O)N[C@@H](C)c2nc3ccccc3o2)n1Cc1ccc(Cl)cc1` [Compound 514]: the pIC50 is 6.30 to 7.30.

On to `O=C(Nc1ccc2occc2c1)N1CCC[C@@H]1c1nncn1Cc1ccc(Cl)cc1` [Compound 121], for which the pIC50 was 6.30 to 7.30.

`CC[C@H](NC(=O)N1CCC[C@@H]1c1nncn1Cc1ccc(Cl)cc1)c1cc2ccccc2o1` [Compound 116]: the pIC50 was above 7.30.

On to `CC(=O)N1CCC(CNC(=O)N2CCC[C@@H]2c2nnc(C)n2Cc2ccc(Cl)cc2)CC1` [Compound 598], for which the negative logarithm of the IC50 (pIC50) is 6.30 to 7.30.

For the compound `Cc1onc(-c2cccnc2)c1NC(=O)N1CCC[C@@H]1c1nnc(C)n1Cc1ccc(Cl)cc1` [Compound 306], the pIC50 is above 7.30.

Take `Cc1nnc([C@H]2CCCN2C(=O)N[C@H](C)c2nc3ccccc3o2)n1Cc1ccc(Cl)cc1` [Compound 513]: the pIC50 was above 7.30.

Consider `Cc1nnc([C@H]2CCCN2C(=O)Nc2ccc(Cl)c(Cl)c2)n1Cc1ccc(Cl)cc1` [Compound 424], for which the pIC50 was 6.30 to 7.30.

Take `Cc1nnc([C@H]2CCCN2C(=O)NC2CCCOc3cc(C(F)(F)F)ccc32)n1Cc1ccc(Cl)cc1` (some centres unmarked) [Compound 177]: the pIC50 is above 7.30.

Take `O=C(NC(c1ccccc1)c1ccccc1)N1C[C@H](O)C[C@@H]1c1nncn1Cc1ccc(Cl)cc1` [Compound 476]: the pIC50 was 6.30 to 7.30.

As for `Cc1nnc([C@H]2CCCN2C(=O)Nc2ncc(Cl)cn2)n1Cc1ccc(Cl)cc1` [Compound 344], the pIC50 is 5.30 to 6.30.

For the compound `Cc1nc([C@H]2CCCN2C(=O)N[C@H]2CCOc3cc(C(F)(F)F)ccc32)n(Cc2ccc(Cl)cc2)n1` [Compound 96], the pIC50 is 5.30 to 6.30.

Regarding `O=C(NC1CCCOc2ccc(Cl)cc21)N1CCC[C@@H]1c1ncnn1Cc1ccc(Cl)cc1` (some centres unmarked) [Compound 84], the pIC50 is 6.30 to 7.30.

Take `Cc1nnc([C@H]2CCCN2C(=O)Nc2ccc(S(C)(=O)=O)cc2)n1Cc1ccc(Cl)cc1` [Compound 330]: the pIC50 was 6.30 to 7.30.

As for `Cc1nnc([C@H]2CC(F)CN2C(=O)NC2C[C@@H]2c2ccccc2)n1Cc1ccc(Cl)cc1` (some centres unmarked) [Compound 576], the pIC50 was 6.30 to 7.30.

With `Cc1nnc([C@H]2CCCN2C(=O)NCC2(c3cccs3)CCOCC2)n1Cc1ccc(Cl)cc1` [Compound 623], the pIC50 was 5.30 to 6.30.

As for `Cc1c(NC(=O)N2CCC[C@@H]2c2nnc(C)n2Cc2ccc(Cl)cc2)cccc1C(=O)O` [Compound 242], the pIC50 is 6.30 to 7.30.

As to `CC(=O)O[C@@H]1C[C@H](c2nncn2Cc2ccc(Cl)cc2)N(C(=O)NC(c2ccccc2)c2ccccc2)C1` [Compound 478], the pIC50 is 6.30 to 7.30.

As for `Cc1nnc([C@H]2CCCN2C(=O)Nc2cc(C(N)=O)ccc2F)n1Cc1ccc(Cl)cc1` [Compound 294], the pIC50 was 6.30 to 7.30.

Take `Cc1nnc([C@H]2CCCN2C(=O)NCCC2CCCCO2)n1Cc1ccc(Cl)cc1` (some centres unmarked) [Compound 602]: the pIC50 is 6.30 to 7.30.

As for `Cc1nnc([C@H]2CCCN2C(=O)N[C@H]2CCOc3cc(C(F)(F)F)ccc32)n1C1(c2ccc(Cl)cc2)CC1` [Compound 328], the negative-log IC50 (pIC50) was 6.30 to 7.30.

For `O=C(N[C@H]1CCCc2cc(C(F)(F)F)ccc21)N1CCC[C@@H]1c1ncnn1Cc1ccc(Cl)cc1` [Compound 82], the pIC50 was above 7.30.

For `Cc1nnc([C@H]2CCCN2C(=O)N[C@H]2CCc3ccc(C(F)(F)F)cc32)n1Cc1ccc(Cl)cc1` [Compound 171], the pIC50 was 6.30 to 7.30.

Regarding `Cc1nnc([C@H]2CCCN2C(=O)Nc2ccc3c(c2)S(=O)(=O)C=C3)n1Cc1ccc(Cl)cc1` [Compound 430], the pIC50 was 6.30 to 7.30.

As for `Cc1nnc([C@H]2CCCN2C(=O)NCC2CCOC2)n1Cc1ccc(Cl)cc1` (some centres unmarked) [Compound 594], the pIC50 was 5.30 to 6.30.

As to `Cc1nc(C(F)(F)F)ccc1CC(=O)N1CCC[C@@H]1c1ncnn1Cc1ccc(Cl)cc1` [Compound 617], the pIC50 is 6.30 to 7.30.

For the compound `O=C(Nc1ccc(SC(F)(F)F)cc1)N1CCC[C@@H]1c1nccn1Cc1ccc(Cl)cc1` [Compound 40], the pIC50 was 6.30 to 7.30.

For `Cc1nnc([C@H]2C[C@H](O)CN2C(=O)Nc2ccc(Cl)nc2Cl)n1Cc1ccc(Cl)cc1` [Compound 492], the pIC50 was 6.30 to 7.30.

Consider `CNC(=O)c1cc(C)cc(C)c1NC(=O)N1CCC[C@@H]1c1nnc(C)n1Cc1ccc(Cl)cc1` [Compound 210], for which the pIC50 is above 7.30.

For `COc1ccc(-c2noc(C)c2NC(=O)N2CCC[C@@H]2c2nnc(C)n2Cc2ccc(Cl)cc2)cc1` [Compound 303], the negative-log IC50 (pIC50) is above 7.30.

For `CC[C@H](NC(=O)N1CCC[C@@H]1c1nnc(C)n1Cc1ccc(F)cc1)c1cc2ccccc2o1` [Compound 586], the pIC50 was above 7.30.

Consider `CC[C@H](NC(=O)N1CCC[C@@H]1c1nc(C)nn1Cc1ccc(Cl)cc1)c1cc2ccccc2o1` [Compound 95], for which the pIC50 was 6.30 to 7.30.

Take `CC[C@H](NC(=O)N1CCC[C@@H]1c1nnc(C)n1Cc1ccc(Cl)cc1)c1ccc(C(F)(F)F)cc1` [Compound 125]: the pIC50 is above 7.30.

Regarding `COC(=O)c1cccc(NC(=O)N2CCC[C@@H]2c2nnc(C)n2Cc2ccc(Cl)cc2)c1C` [Compound 189], the pIC50 is above 7.30.

`N#C/N=C(\NC1(c2ccccc2)CC1)N1CCC[C@@H]1c1nnc(CO)n1Cc1ccc(Cl)cc1` [Compound 374]: the negative logarithm of the IC50 (pIC50) was 5.30 to 6.30.

As to `Cc1nnc([C@H]2CCCN2C(=O)N[C@H]2CCOc3cc(C(F)(F)F)ccc32)n1[C@H](C)c1ccc(Cl)cc1` [Compound 353], the pIC50 was 6.30 to 7.30.

`Cc1nnc([C@H]2CCCN2C(=O)N[C@H](C)c2ccccc2)n1Cc1ccc(Cl)cc1` [Compound 213]: the pIC50 was above 7.30.

Consider `Cc1nnc([C@H]2CCCN2C(=O)N[C@@H]2CCCOc3ccc(Cl)cc32)n1Cc1ccc(Cl)cc1` [Compound 147], for which the pIC50 was above 7.30.

For the compound `Cc1nnc([C@H]2CCCN2C(=O)Nc2cc(C(=O)O)ccc2C(F)(F)F)n1Cc1ccc(Cl)cc1` [Compound 335], the pIC50 is 5.30 to 6.30.

Turning to `Cc1nnc([C@H]2CCCN2C(=O)N[C@H]2CCS(=O)(=O)c3ccc(Cl)cc32)n1Cc1ccc(Cl)cc1` [Compound 369], the pIC50 was above 7.30.

As to `CC(C)Cc1ccc([C@H](C)NC(=O)N2CCC[C@@H]2c2ncnn2Cc2ccc(Cl)cc2)cc1` [Compound 75], the pIC50 was 6.30 to 7.30.

As for `Cc1noc(C)c1NC(=O)N1CCC[C@@H]1c1nnc(C)n1C1(c2ccc(Cl)cc2)CC1` [Compound 324], the pIC50 is 6.30 to 7.30.

Turning to `Cc1nnc([C@H]2CCCN2C(=O)N[C@H]2CCOc3cc(F)ccc32)n1Cc1ccc(Cl)cc1` [Compound 152], the pIC50 is above 7.30.

For the compound `Cc1nnc([C@H]2CCCN2C(=O)NC2(c3ccccc3)CC2)n1Cc1ccc(Cl)nc1` [Compound 383], the pIC50 is 6.30 to 7.30.

Turning to `Cc1nn(C)c(C)c1NC(=O)N1CCC[C@@H]1c1nnc(C)n1Cc1ccc(Cl)cc1` [Compound 320], the pIC50 was above 7.30.

As to `CNC(=O)c1cccc(NC(=O)N2CCC[C@@H]2c2nnc(C)n2Cc2ccc(Cl)cc2)c1C` [Compound 231], the pIC50 was 6.30 to 7.30.

Consider `Cc1cccc(Cl)c1NC(=O)N1CCC[C@@H]1c1nnc(C)n1Cc1ccc(Cl)cc1` [Compound 151], for which the pIC50 is above 7.30.

On to `CCc1noc(C)c1NC(=O)N1CCC[C@@H]1c1nnc(C)n1Cc1ccc(Cl)cc1` [Compound 290], for which the pIC50 was above 7.30.

For the compound `Cc1nc(C(F)(F)F)ccc1NC(=O)N1CCC[C@@H]1c1nnc(C)n1Cc1ccc(Br)cc1` [Compound 535], the pIC50 was above 7.30.

As to `Cc1nnc([C@H]2CCCN2/C(=N\C#N)N[C@H]2CCOc3cc(C#N)ccc32)n1Cc1ccc(Cl)cc1` [Compound 345], the negative-log IC50 (pIC50) is 6.30 to 7.30.

In the case of `Cc1nnc([C@H]2CCCN2C(=O)NC2(c3ccc(C(F)(F)F)cc3)CC2)n1Cc1ccc(Cl)cc1` [Compound 263], the pIC50 is above 7.30.

With `CC[C@@H](NC(=O)N1C[C@@H](O)C[C@@H]1c1nnc(C)n1Cc1ccc(Cl)cc1)c1ccc(C)o1` [Compound 495], the pIC50 is 6.30 to 7.30.
